Test system: 953936-095-R-J2-PDC spheroids with HUVEC/MSC, viability
Test: Anticancer human tumor 953936-095-R-J2-PDC patient-derived cervical squamous cell carcinoma cell line growth inhibition [PI3K]
Conditions: for IC50: curve of first compound; for viability, T/C: stronger effect = lower value; active means viability on the fitted dose curve at most 10% of control; inactive means the rest
Summary of the method: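 Spheroid viability read-out. Co-cultures contained the tumor line plus HUVEC and human MSCs. Each agent was paired with a PI3K inhibitor (inavolisib, alpelisib, duvelisib, copanlisib) across half-log dilutions starting at clinical Cmax, or at 10 microM when Cmax was unknown.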

[1] = second compound 0.0316 µM, first compound 0.000316 µM
[2] = second compound 0.0316 µM, first compound 0.001 µM
[3] = second compound 0.0316 µM, first compound 0.00316 µM
[4] = second compound 0.0316 µM, first compound 0.01 µM
[5] = second compound 0.0316 µM, first compound 0.0316 µM
[6] = second compound 0.0316 µM, first compound 0.1 µM
[7] = second compound 0.1 µM, first compound 0.000316 µM
[8] = second compound 0.1 µM, first compound 0.001 µM
[9] = second compound 0.1 µM, first compound 0.00316 µM
[10] = second compound 0.1 µM, first compound 0.01 µM
[11] = second compound 0.1 µM, first compound 0.0316 µM
[12] = second compound 0.1 µM, first compound 0.1 µM
[13] = second compound 0.316 µM, first compound 0.000316 µM
[14] = second compound 0.316 µM, first compound 0.001 µM
[15] = second compound 0.316 µM, first compound 0.00316 µM
[16] = second compound 0.316 µM, first compound 0.01 µM
[17] = second compound 0.316 µM, first compound 0.0316 µM
[18] = second compound 0.316 µM, first compound 0.1 µM
[19] = second compound 1 µM, first compound 0.000316 µM
[20] = second compound 1 µM, first compound 0.001 µM
[21] = second compound 1 µM, first compound 0.00316 µM
[22] = second compound 1 µM, first compound 0.01 µM
[23] = second compound 1 µM, first compound 0.0316 µM
[24] = second compound 1 µM, first compound 0.1 µM
[25] = second compound 3.16 µM, first compound 0.000316 µM
[26] = second compound 3.16 µM, first compound 0.001 µM
[27] = second compound 3.16 µM, first compound 0.00316 µM
[28] = second compound 3.16 µM, first compound 0.01 µM
[29] = second compound 3.16 µM, first compound 0.0316 µM
[30] = second compound 3.16 µM, first compound 0.1 µM
[31] = second compound 10 µM, first compound 0.000316 µM
[32] = second compound 10 µM, first compound 0.001 µM
[33] = second compound 10 µM, first compound 0.00316 µM
[34] = second compound 10 µM, first compound 0.01 µM
[35] = second compound 10 µM, first compound 0.0316 µM
[36] = second compound 10 µM, first compound 0.1 µM
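Further: spheroids exposed to compounds for seven days before read-out.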

CC(=O)c1c(C)c2cnc(Nc3ccc(N4CCNCC4)cn3)nc2n(C2CCCC2)c1=O + CC(Nc1ncnc2nc[nH]c12)c1cc2cccc(Cl)c2c(=O)n1-c1ccccc1
> 100 nM: IC50 (second compound 0.0316 µM) | IC50 (second compound 0.1 µM) | IC50 (second compound 0.316 µM) | IC50 (second compound 1 µM) | IC50 (second compound 3.16 µM) | IC50 (second compound 10 µM)
inactive: viability, T/C [1] 91.6% | viability, T/C [2] 99.4% | viability, T/C [3] 105% | viability, T/C [4] 93.9% | viability, T/C [5] 113% | viability, T/C [6] 99.4% | viability, T/C [7] 93% | viability, T/C [8] 96.4% | viability, T/C [9] 105% | viability, T/C [10] 88.2% | viability, T/C [11] 99.8% | viability, T/C [12] 92.1% | viability, T/C [13] 97.8% | viability, T/C [14] 92.8% | viability, T/C [15] 90.7% | viability, T/C [16] 86.5% | viability, T/C [17] 103% | viability, T/C [18] 83% | viability, T/C [19] 107% | viability, T/C [20] 98.4% | viability, T/C [21] 85.6% | viability, T/C [22] 94% | viability, T/C [23] 81.5% | viability, T/C [24] 80.2% | viability, T/C [25] 81.4% | viability, T/C [26] 74.4% | viability, T/C [27] 78.2% | viability, T/C [28] 83.5% | viability, T/C [29] 74.8% | viability, T/C [30] 70.7% | viability, T/C [31] 59.9% | viability, T/C [32] 68.6% | viability, T/C [33] 55.5% | viability, T/C [34] 69.7% | viability, T/C [35] 65.1% | viability, T/C [36] 51.3%

CC(C)n1nc(-c2ccc3oc(N)nc3c2)c2c(N)ncnc21 + CC(Nc1ncnc2nc[nH]c12)c1cc2cccc(Cl)c2c(=O)n1-c1ccccc1
inactive: viability, T/C [1] 88.3% | viability, T/C [2] 98.9% | viability, T/C [3] 93.9% | viability, T/C [4] 73.9% | viability, T/C [5] 53.7% | viability, T/C [6] 18.2% | viability, T/C [7] 101% | viability, T/C [8] 95% | viability, T/C [9] 85.1% | viability, T/C [10] 77.1% | viability, T/C [11] 46.3% | viability, T/C [12] 16.5% | viability, T/C [13] 112% | viability, T/C [14] 87.6% | viability, T/C [15] 77.9% | viability, T/C [16] 66.9% | viability, T/C [17] 46.8% | viability, T/C [18] 17.2% | viability, T/C [19] 95.1% | viability, T/C [20] 84.2% | viability, T/C [21] 77.7% | viability, T/C [22] 65% | viability, T/C [23] 56% | viability, T/C [24] 15.9% | viability, T/C [25] 73.3% | viability, T/C [26] 70.5% | viability, T/C [27] 68.8% | viability, T/C [28] 68.8% | viability, T/C [29] 41.1% | viability, T/C [30] 14.6% | viability, T/C [31] 57.7% | viability, T/C [32] 57.3% | viability, T/C [33] 53.3% | viability, T/C [34] 52.8% | viability, T/C [35] 29.9% | viability, T/C [36] 12.8%
33.8 nM: IC50 (second compound 0.0316 µM)
19.3 nM: IC50 (second compound 0.316 µM)
11.3 nM: IC50 (second compound 10 µM)
30.7 nM: IC50 (second compound 1 µM)
29 nM: IC50 (second compound 0.1 µM)
21.8 nM: IC50 (second compound 3.16 µM)

Reference: PubChem BioAssay AID1963971 (Molecular Pharmacology Branch, DTP, NCI, 2024)
